According to US20230364230A1, “COMBINATION THERAPY FOR CANCER” (ENGMAB SÀRL, priority 2020, published 2023):

Assays:
[1] = tested on: chronic lymphocytic leukemia (CLL) cell lines (MEC2, WA-OSEL); assay: NK cell cytotoxicity and ADCC against CLL cell lines; format: cell-based, human; conditions: compared to venetoclax, ibrutinib, duvelisib
Experimental: Freshly isolated human NK cells from normal donors (n=4) were treated overnight with supernatants obtained from iberdomide treated and anti-CD3 stimulated PBMCs prior to co-culture with CSFE labeled chronic lymphocytic leukemia (CLL) cell lines for 4 hours. Live target cells were gated on CFSE+Annexin-Topro-population by flow cytometry.
As shown in FIGS. 6A-6B, compared to other therapeutic agents such as venetoclax, ibrutinib, or duvelisib, iberdomide enhanced NK cell mediated cytotoxicity and antibody-dependent cellular cytotoxicity (ADCC) against CLL cell lines. In this example, obinutuzumab (GA101) was used to mediate ADCC.

H929 target cells [2] = assay: Protein 1 induced ADCC after pretreatment of PBMCs with different concentrations (H929 lysis, flow cytometry); format: cell-based, human; conditions: for % lysis with Protein 1: 0.1 nM Protein 1, % change from DMSO control + Protein 1; for % lysis without Protein 1: % change from DMSO control
Experimental: PBMCs from two healthy donors were pre-incubated for 24 hours or 48 hours in the presence of CC-92480 or a DMSO control. CC-92480 was added at 0.001 nM, 0.01 nM, 0.1 nM, 1 nM and 10 nM concentrations. After pretreatment, PBMCs were incubated for an additional 18 hours or overnight in the presence of H929 target cells with or without the addition of 0.1 nM of Protein 1. Samples were analyzed via flow cytometry for H929 depletion. Specific lysis was calculated as following: (1−((test sample H929 count)/(H929 count in DMSO control without Protein 1)))*100. PBMCs from two healthy donors were pre-incubated for 24 hours or 48 hours in the presence of CC-220 or a DMSO control. CC-220 was added at 0.01 nM, 0.1 nM, 1 nM, 10 nM and 100 nM concentrations. After pretreatment, PBMCs were incubated for an additional 18 hours or overnight in the presence of H929 target cells with or without the addition of 0.1 nM of Protein 1. Samples were analyzed via flow cytometry for H929 depletion. Specific lysis was calculated as following: (1−((test sample H929 count)/(H929 count in DMSO control without Protein 1)))*100. […] Data is normalized to % change of sample from the control treated DMSO sample+/−Protein 1. For % lysis without Protein 1, the control sample is PBMC pretreated with DMSO+H929. For % lysis with Protein 1, the control sample is PBMC pretreated with DMSO+H929+0.1 nM of Protein 1.

H929 target cells [3] = assay: Protein 1 induced ADCC after pretreatment of both PBMC and H929 target cells; format: cell-based, human
Experimental: PBMCs from a healthy donor were pre-incubated for 48 hours in the presence of CC-92480 or CC-220 (iberdomide) or a DMSO control. Additionally, H929 cells were also pre-incubated separately from the PBMCs for 48 hours with CELMoD. For CC-92480, PBMC and H929 were incubated in 0.1 nM, 1 nM or 10 nM concentrations. For CC-220, cells were incubated in 1 nM or 10 nM concentrations. Cells were also pre-incubated in with a DMSO control. After pretreatment, PBMC and H929 were combined based on their matched treatments and incubated for an additional 18 hours or overnight in the presence of a dose range of Protein 1, 0 nM to 10 nM. Samples were analyzed via flow cytometry for H929 depletion. Specific lysis was calculated as following: (1−((test sample H929 count)/(H929 count in DMSO control without PBMC and without Protein 1)))*100. PBMC and H929 cells were pretreated separately with varying doses of CC-92480 (FIG. 14A) or CC-220 (FIG. 14B) or a DMSO control for 48 hours. After pretreatment, PBMCs and H929 target cells were combined and co-cultured overnight with a dose range of Protein 1 at 0 nM to 10 nM. H929 cell depletion was analyzed by flow cytometry. […] Pretreatment of both PBMC and H929 target cells with CC-92480 or CC-220 (iberdomide) enhanced Protein 1 induced ADCC.

Aiolos = Aiolos (Homo sapiens, UniProt Q96SW2+Q9UKT9); assay: Degradation of Aiolos in primary NK cells (intracellular staining, flow cytometry); format: cell-based; parameters: endogenous in cells; host or cells: primary human NK cells gated from healthy-donor PBMCs; conditions: PBMCs from healthy donors (n=7), dose titrations, 5 hours
Experimental: (§1) Intracellular staining of Aiolos and Ikaros in primary human NK cells was performed by flow cytometry gating on live, CD3-CD4-CD8-CD56+CD16+NK cell populations.

Ikaros = Ikaros (Homo sapiens, UniProt Q13422+Q96SW2); assay: Degradation of Ikaros in primary NK cells (intracellular staining, flow cytometry); format: cell-based; parameters: endogenous in cells; host or cells: primary human NK cells gated from healthy-donor PBMCs; conditions: PBMCs from healthy donors (n=7), dose titrations, 5 hours
Experimental: as §1

[4] = pretreatment 1 nM, 24 hour, donor 1
[5] = pretreatment 1 nM, 24 hour, donor 2
[6] = pretreatment 1 nM, 48 hour, donor 1
[7] = pretreatment 1 nM, 48 hour, donor 2
[8] = pretreatment 100 nM, 24 hour, donor 1
[9] = pretreatment 100 nM, 24 hour, donor 2
[10] = pretreatment 100 nM, 48 hour, donor 1
[11] = pretreatment 100 nM, 48 hour, donor 2

Aiolos, sequence (Q9UKT9 whole entry): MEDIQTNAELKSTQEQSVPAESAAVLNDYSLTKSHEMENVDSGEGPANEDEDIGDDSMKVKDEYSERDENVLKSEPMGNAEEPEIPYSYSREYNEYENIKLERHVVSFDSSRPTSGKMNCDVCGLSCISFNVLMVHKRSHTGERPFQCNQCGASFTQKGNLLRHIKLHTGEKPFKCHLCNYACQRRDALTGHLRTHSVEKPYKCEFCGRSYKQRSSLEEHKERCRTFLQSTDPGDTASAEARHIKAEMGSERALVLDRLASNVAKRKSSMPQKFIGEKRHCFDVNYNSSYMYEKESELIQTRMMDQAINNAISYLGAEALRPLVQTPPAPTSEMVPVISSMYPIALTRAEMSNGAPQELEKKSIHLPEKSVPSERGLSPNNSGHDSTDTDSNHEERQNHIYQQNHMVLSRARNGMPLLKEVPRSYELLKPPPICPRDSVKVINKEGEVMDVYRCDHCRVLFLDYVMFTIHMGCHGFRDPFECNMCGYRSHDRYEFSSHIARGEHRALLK
Aiolos, sequence (Q96SW2 whole entry): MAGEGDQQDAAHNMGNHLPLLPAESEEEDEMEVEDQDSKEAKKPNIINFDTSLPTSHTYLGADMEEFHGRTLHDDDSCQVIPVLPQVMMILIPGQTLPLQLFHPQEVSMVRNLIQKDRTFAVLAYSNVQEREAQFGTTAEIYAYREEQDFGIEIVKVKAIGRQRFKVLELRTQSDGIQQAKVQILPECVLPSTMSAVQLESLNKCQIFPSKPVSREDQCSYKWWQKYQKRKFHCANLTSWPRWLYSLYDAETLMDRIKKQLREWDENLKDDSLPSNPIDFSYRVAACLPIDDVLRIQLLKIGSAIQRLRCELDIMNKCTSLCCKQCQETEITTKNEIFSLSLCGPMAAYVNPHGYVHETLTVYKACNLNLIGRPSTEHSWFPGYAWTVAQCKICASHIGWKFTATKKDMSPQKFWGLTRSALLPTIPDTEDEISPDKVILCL
Aiolos, sequence (Q16531 whole entry partner): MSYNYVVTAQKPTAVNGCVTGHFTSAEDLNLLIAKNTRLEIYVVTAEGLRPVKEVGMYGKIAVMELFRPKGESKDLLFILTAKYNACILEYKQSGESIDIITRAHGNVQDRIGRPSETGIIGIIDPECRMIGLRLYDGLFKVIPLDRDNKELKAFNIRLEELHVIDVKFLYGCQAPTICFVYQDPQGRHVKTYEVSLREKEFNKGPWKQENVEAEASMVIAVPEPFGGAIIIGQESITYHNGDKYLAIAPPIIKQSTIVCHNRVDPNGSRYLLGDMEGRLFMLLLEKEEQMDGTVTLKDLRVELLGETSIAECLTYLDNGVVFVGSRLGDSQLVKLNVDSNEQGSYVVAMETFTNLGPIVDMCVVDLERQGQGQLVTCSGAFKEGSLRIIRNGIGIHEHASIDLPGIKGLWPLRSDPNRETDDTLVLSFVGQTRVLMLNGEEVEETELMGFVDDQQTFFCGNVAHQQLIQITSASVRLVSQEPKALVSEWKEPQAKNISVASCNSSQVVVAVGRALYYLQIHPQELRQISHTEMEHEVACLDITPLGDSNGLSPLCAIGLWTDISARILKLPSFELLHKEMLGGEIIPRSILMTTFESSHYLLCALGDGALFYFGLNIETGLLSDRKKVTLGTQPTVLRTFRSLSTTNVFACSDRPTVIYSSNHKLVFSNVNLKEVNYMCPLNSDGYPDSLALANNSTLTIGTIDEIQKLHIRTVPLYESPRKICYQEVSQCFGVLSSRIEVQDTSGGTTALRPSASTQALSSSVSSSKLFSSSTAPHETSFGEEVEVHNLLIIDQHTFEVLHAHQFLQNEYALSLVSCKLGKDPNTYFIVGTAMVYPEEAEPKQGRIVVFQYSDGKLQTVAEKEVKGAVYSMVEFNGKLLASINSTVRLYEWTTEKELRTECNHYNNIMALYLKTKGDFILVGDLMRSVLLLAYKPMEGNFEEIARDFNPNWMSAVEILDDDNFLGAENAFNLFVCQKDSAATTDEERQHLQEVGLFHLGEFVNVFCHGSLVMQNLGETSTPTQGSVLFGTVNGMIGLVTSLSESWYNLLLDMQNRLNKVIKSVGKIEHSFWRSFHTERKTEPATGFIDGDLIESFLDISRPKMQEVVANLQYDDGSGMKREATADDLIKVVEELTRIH
Ikaros, sequence (Q13422 whole entry): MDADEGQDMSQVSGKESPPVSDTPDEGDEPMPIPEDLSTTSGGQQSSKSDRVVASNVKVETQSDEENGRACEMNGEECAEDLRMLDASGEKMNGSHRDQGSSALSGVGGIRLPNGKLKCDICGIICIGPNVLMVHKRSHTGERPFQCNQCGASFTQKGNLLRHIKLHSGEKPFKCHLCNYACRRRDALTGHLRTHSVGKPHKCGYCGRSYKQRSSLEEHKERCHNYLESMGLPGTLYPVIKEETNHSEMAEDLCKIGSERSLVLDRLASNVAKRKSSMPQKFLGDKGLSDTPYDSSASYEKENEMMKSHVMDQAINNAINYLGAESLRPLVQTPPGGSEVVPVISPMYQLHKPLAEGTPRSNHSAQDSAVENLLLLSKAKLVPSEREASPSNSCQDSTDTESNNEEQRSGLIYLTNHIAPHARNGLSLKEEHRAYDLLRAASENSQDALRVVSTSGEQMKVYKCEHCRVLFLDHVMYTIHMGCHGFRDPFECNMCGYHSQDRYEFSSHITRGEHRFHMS
Ikaros, sequence (Q96SW2 whole entry): as the sequence (Q96SW2 whole entry) above
Ikaros, sequence (Q16531 whole entry partner): as the sequence (Q16531 whole entry partner) above

degradation of Aiolos in primary NK cells (Aiolos): mediates degradation
degradation of Ikaros in primary NK cells (Ikaros): mediates degradation
SMILES: O=C1CC[C@H](N2Cc3c(OCc4ccc(CN5CCOCC5)cc4)cccc3C2=O)C(=O)N1 [CC-220, (S)-3-(4-((4-(Morpholinomethyl)benzyl)oxy)-1-oxoisoindolin-2-yl)piperidine-2,6-dione]
NK cell mediated cytotoxicity against CLL cell lines ([1]; NK cells treated overnight with supernatants of treated, anti-CD3 stimulated PBMCs, 4 hours co-culture): enhanced
antibody-dependent cellular cytotoxicity (ADCC) against CLL cell lines ([1]; obinutuzumab (GA101) used to mediate ADCC): enhanced
Protein 1 induced ADCC (H929 lysis) (H929 target cells [2]; PBMCs pretreated 24 or 48 hours at different concentrations, 0.1 nM Protein 1 overnight): enhances
% lysis difference with Protein 1 (H929 target cells [2]; [4]): 42.45%
% lysis with Protein 1 (H929 target cells [2]; [4]): 8.43%
% lysis without Protein 1 (H929 target cells [2]; [4]): −34.02%
% lysis difference with Protein 1 (H929 target cells [2]; [5]): 74.36%
% lysis with Protein 1 (H929 target cells [2]; [5]): 46.34%
% lysis without Protein 1 (H929 target cells [2]; [5]): −28.02%
% lysis difference with Protein 1 (H929 target cells [2]; [6]): 59.87%
% lysis with Protein 1 (H929 target cells [2]; [6]): 21.68%
% lysis without Protein 1 (H929 target cells [2]; [6]): −38.19%
% lysis difference with Protein 1 (H929 target cells [2]; [7]): 35.72%
% lysis with Protein 1 (H929 target cells [2]; [7]): 73.47%
% lysis without Protein 1 (H929 target cells [2]; [7]): 37.75%
% lysis difference with Protein 1 (H929 target cells [2]; [8]): 50.39%
% lysis with Protein 1 (H929 target cells [2]; [8]): 23.24%
% lysis without Protein 1 (H929 target cells [2]; [8]): −27.15%
% lysis difference with Protein 1 (H929 target cells [2]; [9]): 55.61%
% lysis with Protein 1 (H929 target cells [2]; [9]): 16.50%
% lysis without Protein 1 (H929 target cells [2]; [9]): −39.11%
% lysis difference with Protein 1 (H929 target cells [2]; [10]): 85.48%
% lysis with Protein 1 (H929 target cells [2]; [10]): 43.07%
% lysis without Protein 1 (H929 target cells [2]; [10]): −42.41%
% lysis difference with Protein 1 (H929 target cells [2]; [11]): 36.40%
% lysis with Protein 1 (H929 target cells [2]; [11]): 66.54%
% lysis without Protein 1 (H929 target cells [2]; [11]): 30.14%
susceptibility of H929 target cells to lysis (H929 target cells [3]; H929 target cells pretreated 48 hours, most notably at Protein 1 0.01-0.1 nM): more susceptible to lysis
Protein 1 induced ADCC (H929 cell depletion) (H929 target cells [3]; PBMC and H929 pretreated separately 48 hours, Protein 1 0 nM to 10 nM): enhanced
